Measured values from patent US10294234B2, “HIV inhibitor compounds” (priority 2017, dated 2019).
Read-outs that look alike come from different tables or passages of the source.

What was measured:
[1] = 3H Human Predicted Clearance Assay (tritiated analogs); format: in vitro ADME; settings: human, 1 uM
Protocol: 3H Human Predicted Clearance Assay:
For certain compounds, tritiated analogs (H^3) were prepared to further determined their human predicted clearance with increased resolution. Those studies were performed as described above using the tritiated analogs. Data from those compounds is found in Table 2 below and reported in FIG. 1 (note ATV and DRV were not tritiated).

in vivo [2] = experiment: in vivo
Protocol: Pharmacokinetic Profiling Dog PK
Each dosing group consisted of three non-naïve male beagle dogs. At dosing, the animals weighed between 9 to 12 kg. The animals were fasted overnight prior to dose administration and up to four hours after dosing. The test article was administered by intravenous infusion over 30-minutes. The rate of infusion was adjusted according to the body weight of each animal to deliver a dose of 0.5 or 1.0 mg/kg. For the oral dosing group, the test article was administered by oral gavage at a dose volume of 2 mL/kg.
Serial venous blood samples (approximately 1.0 mL each) were collected at predose and 0.25, 0.48, 0.58, 0.75, 1.0, 1.5, 2, 4, 8, 12 and 24 hours post dose from each animal for the IV dosing group; blood samples were collected at predose, 0.25, 0.50, 1, 2 4, 6, 8,12 and 24 hours post dose for the oral dosing group. The blood samples were collected into Vacutainer™ tubes containing EDTA-K2 as the anti-coagulant and were immediately placed on wet ice pending centrifugation for plasma. An LC/MS/MS method was used to measure the concentration of test compound in plasma. Non-compartmental pharmacokinetic analysis was performed on the plasma concentration-time data. VSS=apparent volume of distribution, t1/2=half life, F=oral bioavailability.

[3] = Outline: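 Compounds at 1 uM were incubated in duplicate with dog, rat or human liver microsomes (0.5 mg/mL protein) and an NADPH-regenerating system, sampled at 2, 12, 25, 45 and 65 minutes. Remaining parent was measured by LC/MS/MS, and Clint was calculated from the in vitro t1/2.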
[4] = test system: HIV-1 (IIIB) in MT-4 cells; experiment: MT-4 HIV assay; format: cell-based; settings: Human immunodeficiency virus 1, MT4, 120 h; HIV-1 (IIIB), MT-4 cells, 5 days, Cell Titer Glo; read-out: EC50
Outline: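 MT-4 cells infected with HIV-1 IIIB (1:250 stock dilution) were incubated with 1:3 serially diluted compounds in RPMI with 10% FBS for 5 days at 37 °C. Cell Titer Glo luminescence was the readout. Plates included mock-infected wells, no-drug wells and 5 uM AZT controls.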

in vivo [5] = settings: for Vd / RAT IV CL / RAT IV T1/2: iv
Outline: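 Male SD rats (n=3/group, 0.27–0.32 kg), fasted overnight, given 0.5 or 1.0 mg/kg by 30-min IV infusion, or by oral gavage. Serial plasma samples (EDTA-K2) over 24 h measured by LC/MS/MS; non-compartmental PK analysis.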

recombinant HIV protease = recombinant HIV protease (Human immunodeficiency virus type 1 group M subtype B, UniProt P04585); experiment: biochemical
Protocol: Inhibitor potency was measured using an enzymatic assay with a fluorogenic readout. […] After a 20-minute pre-incubation, the enzymatic reaction was initiated by the addition of the fluorogenic substrate (2-aminobenzoyl)Thr-Ile-Nle-(p-nitro)Phe-Gln-Arg (Bachem) to a final concentration of 40 μM. The total volume of the assay solution was 100 µL. The reaction was measured over 20 minutes on a Tecan Infinite M1000 plate reader using an excitation wavelength of 320 nm and a detection wavelength of 420 nm. The slopes of the progress curves were the measure of reaction rates.

[6] = test system: HIV-1 (IIIB) in MT-4 cells; experiment: Protein adjusted EC95 (high resolution antiviral assay with equilibrium dialysis plasma protein binding); format: cell-based; settings: EC95 adjusted for plasma protein binding (10% plasma vs cell culture media)
Protocol: (§1) MT-4 HIV High Resolution Antiviral Assay
(§2) Assay protocol is identical to that described for the MT-4 antiviral assay with the following changes: Each drug is run in 2 series of quadruplicates with different starting concentrations for each series and 19 1.5 fold dilutions performed across the plate. […] Data is analyzed and Hill coefficients determined in Graph Pad Prism (San Diego, Calif.). EC95s were determined by the formula EC95=(19)^I/hill coefficient×EC50. HD values were determined for certain compounds and reported in Table 5 below as an illustrative example.
Equilibrium Dialysis Assay
Pooled plasma (from at least 3 males and 3 females) was from Bioreclamation IVT. Sodium EDTA was used as the anticoagulant. 10% plasma was diluted in 0.133M phosphate buffer consisted of 1.5% (w/v) Sodium EDTA.
RPMI cell culture media consisted 10% FBS was provided by biology department, Gilead Sciences, Inc.
Plasma Protein Binding Assay:
Studies were conducted in duplicate or triplicate using a Dianorm Equilibrium Dialyser (Harvard Apparatus, Holliston Mass.) with each cell consisting of a semipermeable membrane (2.4 cm working diameter) separating two 1 mL PTFE half-cells (Weder HG, Schildknecht J, Kesselring P. A new equilibrium dialyzing system. American Laboratory. 1971; 10: 15-21). Prior to the study, the dialysis membrane was soaked for approximately one hour in 0.133 M phosphate buffer, pH 7.4. 10% plasma and cell culture media spiked with 1 μM compound (1 mL) were placed into opposite sides of the assembled dialysis cells and the dialysis cells were then rotated slowly in a 37° C. water bath. After the equilibration period, matrix-containing samples from both sides were drained into pre-weighed polypropylene tubes. Post-dialysis 10% plasma samples were transferred into centrifuge tubes containing 1 mL of blank cell culture media. Post-dialysis cell culture media samples were transferred into centrifuge tubes containing 1 mL of blank 10% plasma. All samples weights were measured and recorded for calculations of volume shift and recovery. […]

[7] = test system: HIV-1 (IIIB) in MT-4 cells; experiment: MT-4 HIV High Resolution Antiviral Assay; format: cell-based; settings: for EC50: Human immunodeficiency virus 1, IIIB, MT4; for EC95: calculated from Hill coefficient and EC50; for Hill-coefficient: Graph Pad Prism
Protocol: Compounds were tested in a high-throughput 384-well assay format for their ability to inhibit the replication of HIV-1 (IIIB) in MT-4 cells. Compounds were serially diluted (1:3) in DMSO on 384-well polypropylene plates and further diluted 200-fold into complete RPMI media (10% FBS, 1% P/S) using the Biotek Micro Flow and Agilent ECHO acoustic dispenser. Each plate contained up to 8 test compounds, with negative (No Drug Control) and 5 uM AZT positive controls. MT-4 cells were pre-infected with 10 uL of either RPMI (mock-infected) or a fresh 1:250 dilution of an HIV-1 (IIIB) concentrated virus stock. Infected and uninfected MT-4 cells were further diluted in complete RPMI media and added to each plate using a Micro Flow dispenser. After 5 days incubation in a humidified and temperature controlled incubator (37° C.), Cell Titer Glo (Promega) was added to the assay plates to quantify the amount of luciferase. EC50 and CC50 values were defined as the compound concentration that causes a 50% decrease in luminescence signal, and were calculated using a sigmoidal dose-response model to generate curve fits.
as §1, §2

[8] = male beagle dogs, IV infusion over 30 minutes, 0.5 or 1.0 mg/kg

**Q.** For `COC(=O)N[C@H](C(=O)N[C@@H](Cc1ccc(C#Cc2cnc(N3CC4CCC(C3)N4C3COC3)nc2)cc1)[C@@H](O)CN(Cc1c(F)cc(-c2ccn(C(F)F)n2)cc1F)NC(=O)[C@@H](NC(=O)OC)C(C)(C)C(F)(F)F)C(C)(C)C(F)(F)F` [Example 171, Methyl ((5S,8S,9S,14S)-11-(4-(1-(difluoromethyl)-1H-pyrazol-3-yl)-2,6-difluorobenzyl)-16,16,16-trifluoro-9-hydroxy-15,15-dimethyl-8-(4-((2-(8-(oxetan-3-yl)-3,8-diazabicyclo[3.2.1]octan-3-yl)pyrimidin-5-yl)ethynyl)benzyl)-3,6,13-trioxo-5-(1,1,1-trifluoro-2-methylpropan-2-yl)-2-oxa-4,7,11,12-tetraazahexadecan-14-yl)carbamate], which “3H Human Predicted Cl.” value [1] is on record?
**A.** 0.02

**Q.** And the “DOG IV CL” value (in vivo [2]; dog, in vivo, iv)?
**A.** 4.33 mL/min/kg

**Q.** What about the “DOG IV T1/2” value (in vivo [2]; [8]) of the same compound?
**A.** 13.4 h

**Q.** What about the Vd (in vivo [2]; male, beagle, dog, in vivo, iv) of the same compound?
**A.** 3.12 L/kg

**Q.** What about the “DOG PO F” value (in vivo [2]; male, beagle, dog, in vivo, po, 2 mg/kg) of the same compound?
**A.** 23%

**Q.** What about the “Dog. Pred. Cl.” value ([3]; dog, microsomes) of the same compound?
**A.** 0.27 L/H/kg

**Q.** And the “Human Pred Cl.” value ([3]; human, microsomes)?
**A.** <0.11 L/H/kg

**Q.** What about the “Rat. Pred. Cl.” value ([3]; rat, microsomes) of the same compound?
**A.** 0.215 L/H/kg

**Q.** What about the EC50 [4] of the same compound?
**A.** 4.59 nM

**Q.** And the Vd (in vivo [5]; male, SD, rat, in vivo)?
**A.** 8.11 L/kg

**Q.** And the “RAT PO F” value (in vivo [5]; male, SD, rat, in vivo, po, 2.5 mg/kg)?
**A.** 39%

**Q.** What about the “RAT IV CL” value (in vivo [5]; rat, in vivo) of the same compound?
**A.** 5.33 mL/min/kg

**Q.** And the “RAT IV T1/2” value (in vivo [5]; rat, in vivo)?
**A.** 22.5 h

**Q.** With `COC(=O)N[C@H](C(=O)N[C@@H](Cc1ccccc1)[C@@H](O)CN(Cc1ccc(-c2ccccn2)cc1)NC(=O)[C@@H](NC(=O)OC)C(C)(C)C)C(C)(C)C` [atazanavir, methyl N-[(2S)-1-[2-[(2S,3S)-2-hydroxy-3-[[(2S)-2-(methoxycarbonylamino)-3,3-dimethylbutanoyl]amino]-4-phenylbutyl]-2-[(4-pyridin-2-ylphenyl)methyl]hydrazinyl]-3,3-dimethyl-1-oxobutan-2-yl]carbamate, reference compound] as the compound, how does the Ki (recombinant HIV protease) read?
**A.** 0.035 nM

**Q.** And the “DOG IV CL” value (in vivo [2]; [8])?
**A.** 16.7 mL/min/kg

**Q.** And the “DOG IV T1/2” value (in vivo [2]; [8])?
**A.** 1.3 h

**Q.** And the “DOG PO F” value (in vivo [2]; male beagle dogs, oral gavage, PO dose 10 mg/kg)?
**A.** 48%

**Q.** And the Vd (in vivo [2]; male, beagle, dog, plasma, iv)?
**A.** 0.9 L/kg

**Q.** What about the “Dog. Pred. Cl.” value ([3]; dog liver microsomes 0.5 mg/mL, 1 uM compound, NADPH) of the same compound?
**A.** 1.4 L/H/kg

**Q.** And the “Human Pred Cl.” value ([3]; human liver microsomes 0.5 mg/mL, 1 uM compound, NADPH)?
**A.** 1.07 L/H/kg

**Q.** What about the “Rat. Pred. Cl.” value ([3]; rat liver microsomes 0.5 mg/mL, 1 uM compound, NADPH) of the same compound?
**A.** 3.7 L/H/kg

**Q.** What about the “Protein Adjusted EC95” value [6] of the same compound?
**A.** 75 nM

**Q.** And the Vd (in vivo [5]; male, SD, rat, in vivo)?
**A.** 0.87 L/kg

**Q.** And the “RAT PO F” value (in vivo [5]; male, SD, rat, in vivo, po, 5 mg/kg)?
**A.** 38%

**Q.** And the “RAT IV CL” value (in vivo [5]; rat, in vivo)?
**A.** 45 mL/min/kg

**Q.** What about the “RAT IV T1/2” value (in vivo [5]; rat, in vivo) of the same compound?
**A.** 0.37 h

**Q.** And the EC50 ([7]; high resolution assay, 40 data points, MT-4 cells, read-out: EC50)?
**A.** 9.7 nM

**Q.** What about the EC95 [7] of the same compound?
**A.** 25 nM

**Q.** What about the Hill-coefficient ([7]; high resolution assay) of the same compound?
**A.** 3.1

**Q.** For `CC(C)CN(C[C@@H](O)[C@H](Cc1ccccc1)NC(=O)O[C@H]1CO[C@H]2OCC[C@H]21)S(=O)(=O)c1ccc(N)cc1` [darunavir, [(3aS,4R,6aR)-2,3,3a,4,5,6a-hexahydrofuro[2,3-b]furan-4-yl] N-[(2S,3R)-4-[(4-aminophenyl)sulfonyl-(2-methylpropyl)amino]-3-hydroxy-1-phenylbutan-2-yl]carbamate, reference compound], which “DOG PO F” value (in vivo [2]; male beagle dogs, oral gavage, PO dose 2 mg/kg) is on record?
**A.** 38%

**Q.** What about the Vd (in vivo [2]; male, beagle, dog, in vivo, iv) of the same compound?
**A.** 0.87 L/kg

**Q.** And the “Protein Adjusted EC95” value [6]?
**A.** 42 nM

**Q.** And the “RAT PO F” value (in vivo [5]; male SD rats, oral gavage, PO dose 2.0 mg/kg)?
**A.** 24%

**Q.** What about the Vd (in vivo [5]; male, SD, rat, in vivo) of the same compound?
**A.** 0.73 L/kg

**Q.** What about the EC50 [7] of the same compound?
**A.** 7.2 nM

**Q.** And the EC95 [7]?
**A.** 19.9 nM

**Q.** And the Hill-coefficient ([7]; high resolution assay)?
**A.** 2.9
